Experiment [1] addresses T1, potassium ion channel hERG (human Ether-á-go-go-Related Gene) (Homo sapiens, UniProt Q12809).
T1 construct: expressed in transfected cells; host or cells: Chinese hamster ovary K1 (CHO)
Kind of experiment: Assay 5 - hERG assay (SyncroPatch 384PE patch clamp, CHO cells). Conditions: geometric mean, CHO cells over-expressing hERG, read-out: Assay 5 (hERG Hu CHO IF EPh CR-Syncro) GMean IC50. It is filed as cell-based. The method, boiled down:
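Automated whole-cell patch clamp at room temperature on CHO-K1 cells over-expressing hERG, using K-fluoride/escin internal solution (pH 7.2) and NMDG-containing external solution (pH 7.4). Compounds were tested in a 6-point cumulative format, 0.33% final DMSO. Wells accepted only with seal >30 MegaOhm, Z′>0.4 and current >0.2 nA.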

The target of experiment [2] is GSK3b (Glycogen synthase kinase-3 beta) (Homo sapiens, UniProt P49841). Kind of experiment: Assay 6 - GSK3b assay (ThermoFisher, FRET Z-Lyte). Conditions: geometric mean; ATP Conc: 10.000 μM; read-out: Assay 6 (GSK3B FRET-Z-Lyte CR) GMean IC50 (μM) ATP Conc: 10.000. It is filed as biochemical. The gist of the method:
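Z-Lyte FRET kinase assay: 0.22-0.92 ng GSK3β with 2 μM Ser/Thr 09 peptide in 50 mM HEPES pH 7.5, 10 mM MgCl2, 1 mM EGTA, 0.01% BRIJ-35, 60 min at room temperature, then 60 min development. Compounds in 1% DMSO, 10-point 3-fold dilutions from 10 μM; sigmoidal dose-response fit.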

For experiment [3], the target named is T2, PCSK9 (Homo sapiens, UniProt Q8NBP7, G670E/V474I). The experiment in a line: cell-based.
Target sequence in this assay (Q8NBP7 31-152): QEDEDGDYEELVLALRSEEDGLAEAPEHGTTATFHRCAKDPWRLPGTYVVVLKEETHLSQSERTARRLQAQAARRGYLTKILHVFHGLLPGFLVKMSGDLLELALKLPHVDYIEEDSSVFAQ
Target sequence in this assay (Q8NBP7 153-692 V474I/G670E): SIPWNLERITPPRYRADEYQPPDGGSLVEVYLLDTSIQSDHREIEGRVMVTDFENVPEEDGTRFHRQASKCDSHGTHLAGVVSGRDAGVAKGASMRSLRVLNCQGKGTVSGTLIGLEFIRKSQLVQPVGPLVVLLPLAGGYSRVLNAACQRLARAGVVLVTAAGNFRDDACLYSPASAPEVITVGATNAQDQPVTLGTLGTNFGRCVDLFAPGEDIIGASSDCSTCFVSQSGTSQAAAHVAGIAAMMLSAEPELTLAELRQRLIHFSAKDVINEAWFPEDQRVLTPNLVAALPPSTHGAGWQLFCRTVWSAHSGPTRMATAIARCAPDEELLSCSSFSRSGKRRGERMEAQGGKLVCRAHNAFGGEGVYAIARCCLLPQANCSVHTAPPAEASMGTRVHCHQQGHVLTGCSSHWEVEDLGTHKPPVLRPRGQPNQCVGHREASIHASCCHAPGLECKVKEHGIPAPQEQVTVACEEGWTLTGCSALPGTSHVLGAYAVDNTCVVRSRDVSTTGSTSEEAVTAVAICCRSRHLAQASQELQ
Description: This assay measures for PCSK9 antagonist activity based on a test compound's capacity to restore LDL-C uptake in HepG2 cells. The assay is based on exogenous PCSK9 and LDL-C complexed with a pH-sensitive dye. Outside the cells, at neutral pH, the pHrodo Red-LDL is dimly fluorescent but upon LDLR mediated endocytosis it fluoresces brightly. PCSK9 traffics the LDLR to intracellular degradation and reduces uptake of LDL-C. Inhibition of PCSK9 reduces LDLR degradation and the increased LDL-C uptake is quantified by fluorescence microscopy.
Cell medium: MEM supplemented with 10% FBS, 1× NEAA and Sodium Pyruvate
Assay medium: OptiMem supplemented with penicillin/streptomycin
Cells: HepG2 (ATCC #HB-8065)
Cryopreserved HepG2 cells were thawed in assay medium and centrifuged for 5 min at 250 g. Supernatant was discarded and the cell pellet resuspended in cell medium and counted with a Nucleocounter. Cells were again centrifuged 5 min at 250 g and the pellet was resuspended to 500000 cells/mL in assay medium. • 2. 20 μL of above cell mix was dispensed into black pclear TC treated 384 well plates with Multidrop Combi and left at room temperature for 20 minutes. • 3. Plates were incubated at 37° C., 5% CO2 for 24 h
Test compounds were prepared in concentration response in DMSO with a half-log dilution factor in DMSO in Echo 384 LDV plates starting at 10 mM. • 2. 30 nL of above test compounds were dispensed with Echo 655 to cells for a top concentration of 10 μM • 3. […] Plates were incubated at 37° C., 5% CO2 for 24 h
10 μL pHrodo Red-LDL in assay medium was dispensed to cells with Multidrop Combi for 6 μg/mL • 2. Plates were incubated at 37° C., 5% CO2 and imaged with the Incucyte S3 after 4 h and 24 h
Image data was processed using Incucyte 2021, a software to identify cells and red fluorescent intensity. Screener was used to further process data. Data was normalized as % effect of the signal between median values of the on-plate controls of DMSO and 100 nM Evolocumab according to the formula % effect=−100*(x−DMSO)/(Evolocumab−DMSO) where x equals the measured signal. Concentration response data of the normalized values were fitted using a four-parameter logistic fit.
Experiment [4] addresses T2, PCSK9. Kind of experiment: biochemical.
Target sequence in this assay (Q8NBP7 with tags, fused parts or gaps V474I/G670E): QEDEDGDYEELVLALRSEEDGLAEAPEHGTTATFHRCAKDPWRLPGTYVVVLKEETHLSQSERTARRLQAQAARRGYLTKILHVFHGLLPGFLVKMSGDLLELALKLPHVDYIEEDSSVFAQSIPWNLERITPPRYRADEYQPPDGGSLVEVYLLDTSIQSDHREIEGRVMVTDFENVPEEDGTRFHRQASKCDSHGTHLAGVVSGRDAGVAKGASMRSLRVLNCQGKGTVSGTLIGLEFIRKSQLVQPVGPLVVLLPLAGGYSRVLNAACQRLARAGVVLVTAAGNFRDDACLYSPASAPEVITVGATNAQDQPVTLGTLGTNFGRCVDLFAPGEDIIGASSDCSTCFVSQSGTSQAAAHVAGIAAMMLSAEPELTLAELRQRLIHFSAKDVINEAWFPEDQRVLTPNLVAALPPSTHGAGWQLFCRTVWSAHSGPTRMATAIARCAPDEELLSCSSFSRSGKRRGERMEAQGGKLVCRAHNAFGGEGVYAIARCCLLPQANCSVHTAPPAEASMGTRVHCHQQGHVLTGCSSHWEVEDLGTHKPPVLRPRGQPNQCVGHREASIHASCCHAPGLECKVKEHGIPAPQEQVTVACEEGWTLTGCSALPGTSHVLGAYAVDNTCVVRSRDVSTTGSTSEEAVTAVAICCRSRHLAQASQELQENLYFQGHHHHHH
Experiment [5] addresses PCSK9 (Homo sapiens, UniProt Q8NBP7). Kind of experiment: Assay 2 - Biophysical human PCSK9 assay (SPR, Biacore). Details: biotinylated human PCSK9 (31-692)-Avi-His6. Conditions: geometric mean; SPR single-cycle kinetics, 30° C.; read-out: Assay 2 (PCSK9 BIAcore DBA CR) GMean Kd. It is filed as binding. The protocol:
The SPR binding experiments were performed on a Biacore S200 optical biosensor unit at 30° C. A Series S Sensor Chip SA that is designed to bind biotinylated molecules for interaction analysis in Biacore systems was equilibrated at room temperature prior to use. The running buffer for protein tethering and subsequent ligand binding experiments was 10 mM HEPES pH 7.4, 150 mM NaCl, 0.05% (v/v) Tween 20 pH 7.4.
For the surface tethering of PCSK9, biotinylated human PCSK9 (31-692)-Avi-His6 at a concentration of 0.5 mg/mL was used. Prior to the surface tethering, the surface was exposed to a solution of 50 mM NaOH, 500 mM NaCl via 3 consecutive injections of this solution with a contact time of 60 s and a flowrate of 10 μL min- to remove non-conjugated streptavidin. The PCSK9 protein was diluted to a concentration of 20 μg/mL using running buffer and injected with a contact time of 180-300 s and a flowrate of 10 μL min^−1 over a single flow channel (typically flow channel 2 or flow channel 4) with the aim to achieve protein capture levels of >5000 response units (RU). Remaining biotin binding sites were blocked via 2 consecutive injections of a 10 μM D-biotin solution in running buffer with a contact time of 60 s and a flowrate of 10 μL min^−1 over all flow-channels.
The binding experiments were all performed at a flow rate of 30 μL min^−1 and by employing the method of single-cycle kinetics. This approach involves the sequential injection of a compound concentration series without regeneration steps. A contact time between 90-150 s was selected, which was followed by a 40 min dissociation phase to allow for a proper estimation of the dissociation rate constant. Test compounds were delivered in DMSO at a concentration of 10 mM and a digital dispenser HP D300 was used to set up the compound concentration series using 6 concentrations. The tested concentrations have been 30, 100, 300, 1000, 3000 and 10000 nM. Prior to injecting any compound, the surfaces were equilibrated by injecting running buffer over them in three separate pulses. The data collection rate was set to 10 Hz.
The raw sensorgrams of the compound injections were first subjected to reference subtraction (subtracting the signal from flow channel 1 and/or 3 from the signal from channels 2 and/or 4 respectively) and then blank subtraction (subtracting the signal from injecting DMSO controls from the reference subtracted data). The resulting double-referenced sensorgrams were then fitted using a 1:1 binding interaction model using the manufactures software package to extract kinetic- and affinity data.
On the technique in general: SPR reads the build-up and loss of mass on a sensor chip optically.

Drawing on patent US20240239767A1 (AstraZeneca AB, priority 2022, published 2024), this text covers IC50 and Kd for nine compounds.

Sequence of GSK3b (Glycogen synthase kinase-3 beta) (P49841 whole entry): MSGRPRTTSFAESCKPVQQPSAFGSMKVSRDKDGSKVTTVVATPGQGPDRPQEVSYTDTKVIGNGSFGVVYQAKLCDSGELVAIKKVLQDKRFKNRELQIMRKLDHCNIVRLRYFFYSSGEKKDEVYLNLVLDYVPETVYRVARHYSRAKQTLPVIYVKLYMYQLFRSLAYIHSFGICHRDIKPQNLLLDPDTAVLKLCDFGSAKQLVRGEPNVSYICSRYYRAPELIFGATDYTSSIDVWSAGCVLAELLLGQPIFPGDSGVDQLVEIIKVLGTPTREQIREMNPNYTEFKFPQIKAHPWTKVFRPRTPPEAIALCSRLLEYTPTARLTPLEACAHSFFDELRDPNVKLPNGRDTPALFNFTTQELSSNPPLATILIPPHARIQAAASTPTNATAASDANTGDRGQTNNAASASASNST
T1 sequence (Q12809 whole entry): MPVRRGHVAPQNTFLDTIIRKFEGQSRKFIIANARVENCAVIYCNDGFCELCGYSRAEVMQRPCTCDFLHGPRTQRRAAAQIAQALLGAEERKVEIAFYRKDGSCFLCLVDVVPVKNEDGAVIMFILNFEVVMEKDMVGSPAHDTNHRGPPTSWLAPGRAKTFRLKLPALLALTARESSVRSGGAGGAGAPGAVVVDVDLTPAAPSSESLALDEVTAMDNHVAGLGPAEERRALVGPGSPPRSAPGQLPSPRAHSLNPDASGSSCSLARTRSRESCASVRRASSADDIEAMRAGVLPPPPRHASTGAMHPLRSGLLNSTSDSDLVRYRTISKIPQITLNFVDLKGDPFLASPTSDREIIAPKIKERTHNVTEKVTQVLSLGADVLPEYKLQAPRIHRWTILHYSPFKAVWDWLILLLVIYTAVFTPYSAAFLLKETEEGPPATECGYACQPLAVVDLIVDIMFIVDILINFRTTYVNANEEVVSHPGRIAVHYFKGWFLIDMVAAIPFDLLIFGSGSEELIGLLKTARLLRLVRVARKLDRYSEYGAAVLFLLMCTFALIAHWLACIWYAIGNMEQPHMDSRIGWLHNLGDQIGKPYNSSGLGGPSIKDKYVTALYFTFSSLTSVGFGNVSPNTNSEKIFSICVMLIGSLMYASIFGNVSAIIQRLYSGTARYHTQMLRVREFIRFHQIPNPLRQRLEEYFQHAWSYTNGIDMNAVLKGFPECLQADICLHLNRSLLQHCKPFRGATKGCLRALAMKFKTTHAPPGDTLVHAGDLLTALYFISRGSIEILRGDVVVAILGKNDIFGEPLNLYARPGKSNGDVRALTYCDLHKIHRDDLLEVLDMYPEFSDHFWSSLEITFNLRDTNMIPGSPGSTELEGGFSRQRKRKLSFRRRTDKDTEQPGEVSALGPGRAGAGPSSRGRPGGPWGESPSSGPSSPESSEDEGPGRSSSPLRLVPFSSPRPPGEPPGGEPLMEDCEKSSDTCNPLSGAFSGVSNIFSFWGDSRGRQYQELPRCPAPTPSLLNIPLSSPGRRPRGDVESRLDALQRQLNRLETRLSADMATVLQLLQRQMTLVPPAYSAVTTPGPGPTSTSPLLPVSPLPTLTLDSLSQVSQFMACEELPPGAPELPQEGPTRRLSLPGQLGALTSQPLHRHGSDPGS
Sequence of PCSK9 (Homo sapiens, UniProt Q8NBP7) (Q8NBP7 31-692): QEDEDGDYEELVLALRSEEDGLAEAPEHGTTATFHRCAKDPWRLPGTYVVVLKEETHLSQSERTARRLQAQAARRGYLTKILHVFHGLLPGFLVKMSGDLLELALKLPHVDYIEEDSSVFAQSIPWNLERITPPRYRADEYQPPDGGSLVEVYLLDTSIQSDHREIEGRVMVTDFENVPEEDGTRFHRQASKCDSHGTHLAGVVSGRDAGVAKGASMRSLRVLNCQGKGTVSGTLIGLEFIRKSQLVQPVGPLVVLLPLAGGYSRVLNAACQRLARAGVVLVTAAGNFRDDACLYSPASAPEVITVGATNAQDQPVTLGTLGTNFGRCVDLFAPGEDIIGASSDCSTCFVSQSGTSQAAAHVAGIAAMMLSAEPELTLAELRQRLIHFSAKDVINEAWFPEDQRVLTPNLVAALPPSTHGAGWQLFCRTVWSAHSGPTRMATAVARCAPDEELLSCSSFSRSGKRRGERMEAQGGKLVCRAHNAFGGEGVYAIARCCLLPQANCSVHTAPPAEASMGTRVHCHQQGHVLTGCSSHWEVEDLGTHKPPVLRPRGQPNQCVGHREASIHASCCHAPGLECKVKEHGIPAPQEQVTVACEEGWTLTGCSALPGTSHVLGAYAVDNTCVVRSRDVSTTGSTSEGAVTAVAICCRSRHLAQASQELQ

For the compound `COc1cccn(-c2ccc(N[C@H]3CC[C@H](Nc4nc5cccnc5s4)C3)nc2)c1=O` [Example 21, 3-Methoxy-6′-(((1S,3S)-3-(thiazolo[5,4-b]pyridin-2-ylamino)cyclopentyl)amino)-2H-[1,3′-bipyridin]-2-one], the IC50 was more than 40000 nM in experiment [1], more than 10 µM in experiment [2], 100 nM against PCSK9 [3] and 1.5 nM against PCSK9 [4]. For the same compound, the equilibrium dissociation constant (Kd) at PCSK9 [5] stood at 0.5 nM.

For the compound `CN1C(=O)CN(c2ccc(N[C@H]3CC[C@H](Nc4nc5cccnc5[nH]4)C3)nc2)C1=O` [Example 37, 1-(6-(((1S,3S)-3-((3H-Imidazo[4,5-b]pyridin-2-yl)amino)cyclopentyl)amino)pyridin-3-yl)-3-methylimidazolidine-2,4-dione], the IC50 in experiment [1] was more than 40000 nM; in experiment [2], more than 10 µM; at PCSK9 [3], 127 nM; on PCSK9 [4], 4.4 nM. The Kd on PCSK9 [5] stood at 3 nM.

Consider `O=c1ccc2cccnc2n1-c1ccc(N[C@H]2CC[C@H](Nc3nc4cccnc4[nH]3)C2)nc1` [Example 34, 1-(6-(((1S,3S)-3-((3H-Imidazo[4,5-b]pyridin-2-yl)amino)cyclopentyl)amino)pyridin-3-yl)-1,8-naphthyridin-2(1H)-one], for which the IC50 in experiment [1] is more than 40000 nM; in experiment [2], more than 10 µM; against PCSK9 [3], 98 nM; on PCSK9 [4], 1.2 nM. For the same compound, the Kd on PCSK9 [5] is 1 nM.

`O=c1ccccn1-c1ccc(N[C@H]2CC[C@H](Nc3nc4cccnc4s3)C2)nc1` [Example 19, 6′-(((1S,3S)-3-(Thiazolo[5,4-b]pyridin-2-ylamino)cyclopentyl)amino)-2H-[1,3′-bipyridin]-2-one]: the IC50 in experiment [1] was more than 40000 nM; in experiment [2] it was more than 10 µM; on PCSK9 [3] it was 157 nM; on PCSK9 [4] it was 4.4 nM. Besides, the dissociation constant Kd on PCSK9 [5] worked out at 4 nM.

Take `O=c1ccccn1-c1ccc(N[C@H]2CC[C@H](Nc3nc4cc(CO)cnc4[nH]3)C2)nc1` [Example 61, 6′-(((1S,3S)-3-((6-(Hydroxymethyl)-3H-imidazo[4,5-b]pyridin-2-yl)amino)cyclopentyl)amino)-2H-[1,3′-bipyridin]-2-one]: the IC50 in experiment [1] is more than 40000 nM; in experiment [2] it was more than 10 µM; against PCSK9 [3] it was 100 nM; against PCSK9 [4] it was 8.9 nM. Besides, on PCSK9 [5], the Kd came to 11 nM.

`O=c1ccccn1-c1ccc(N[C@H]2CC[C@H](Nc3nc4cccnc4[nH]3)C2)nc1` [Example 46, 6′-(((1S,3S)-3-((3H-Imidazo[4,5-b]pyridin-2-yl)amino)cyclopentyl)amino)-2H-[1,3′-bipyridin]-2-one]: the IC50 in experiment [1] was more than 40000 nM; in experiment [2], 0.425 µM; at PCSK9 [3], 102 nM; at PCSK9 [4] it was 4.4 nM. Besides, the dissociation constant (Kd) on PCSK9 [5] came to 6 nM.

Turning to `Cc1cccn(-c2ccc(N[C@H]3CC[C@H](Nc4nc5cccnc5[nH]4)C3)nc2)c1=O` [Example 40, 6′-(((1S,3S)-3-((3H-Imidazo[4,5-b]pyridin-2-yl)amino)cyclopentyl)amino)-3-methyl-2H-[1,3′-bipyridin]-2-one], the IC50 in experiment [1] is more than 40000 nM; in experiment [2], 8.15 µM; at PCSK9 [3], 90 nM; against PCSK9 [4], 1.6 nM. Also, the dissociation constant Kd at PCSK9 [5] was found to be 1 nM.

As for `COc1ccc(=O)n(-c2ccc(N[C@H]3CC[C@H](Nc4nc5cccnc5s4)C3)nc2)c1` [Example 25, 5-Methoxy-6′-(((1S,3S)-3-(thiazolo[5,4-b]pyridin-2-ylamino)cyclopentyl)amino)-2H-[1,3′-bipyridin]-2-one], the 50% inhibitory concentration (IC50) in experiment [1] was more than 40000 nM; in experiment [2], 0.053 µM; at PCSK9 [3], 51 nM; on PCSK9 [4], 5.6 nM. In addition, the Kd on PCSK9 [5] is 4 nM.

`O=c1ccccn1-c1ccc(N[C@H]2CC[C@H](Nc3nc4cc(OC(F)F)cnc4[nH]3)C2)nc1` [Example 60, 6′-(((1S,3S)-3-((6-(Difluoromethoxy)-3H-imidazo[4,5-b]pyridin-2-yl)amino)cyclopentyl)amino)-2H-[1,3′-bipyridin]-2-one]: the IC50 is 33000 nM in experiment [1], 41 nM against PCSK9 [3] and 0.6 nM against PCSK9 [4]. In addition, the dissociation constant (Kd) at PCSK9 [5] was 1 nM.

Broadly, the IC50 is the midpoint of a concentration-inhibition curve. The Kd is a measure of binding affinity in units of concentration.
